This is an account of results in patent US20070117770A1, “Human ribosomal DNA (rDNA) and ribosomal RNA (rRNA) nucleic acids and uses thereof” (Cylene Pharmaceuticals, Inc., priority 2005, published 2007).

One assay concerns the target SAPK4(h) (Homo sapiens, UniProt O15264). Put plainly: Protein kinase inhibition assay. The settings on record: read-out: percent residual activity of SAPK4(h). The class given is biochemical. The protocol:
(§1) Certain compounds were tested for activity in protein kinase inhibition assays. All substrates were dissolved and diluted to working stocks in de-ionized water, apart from histone H1 (10× working stock in 20 mM MOPS pH 7.0), PDKtide (10× working stock in 50 mM Tris pH 7.0) ATF2 (which is typically stored at a 20× working stock in 50 mM Tris pH 7.5, 150 mM NaCl, 0.1 mM EGTA, 0.03% Brij-35, 50% glycerol, 1 mM benzamidine, 0.2 mM PMSF and 0.1% R-mercaptoethanol), KKLNRTLSFAEPG (SEQ ID NO:203) and RRRLSFAEPG (SEQ ID NO:204) (50 mM HEPES pH 7.4) and GGEEEEYFELVKKKK (SEQ ID NO:205) (20 mM MOPS pH 7.0). All kinases were pre-diluted to a 10× working concentration prior to addition into the assay. The composition of the dilution buffer for each kinase is detailed below.
(§2) In a final reaction volume of 25 μl, SAPK4 (h) (5-10 mU) is incubated with 25 mM Tris pH 7.5, 0.02 mM EGTA, 0.33 mg/ml myelin basic protein, 10 mM MgAcetate and [gamma-33P-ATP] (specific activity approx. 500 cpm/pmol, concentration as required). The reaction is initiated by the addition of the MgATP mix. After incubation for 40 minutes at room temperature, the reaction is stopped by the addition of 5 μl of a 3% phosphoric acid solution. 10 μl of the reaction is then spotted onto a P30 filtermat and washed three times for 5 minutes in 75 mM phosphoric acid and once in methanol prior to drying and scintillation counting.

The next assay relates to cells. Put plainly: Apoptosis by Annexin V binding (FACS). In kind it is cell-based. As for the experimental part: Apoptosis was assessed by Annexin V binding in flow cytometry fluorescence activated cell sorting (FACS) assays. In such assays, cells were harvested and washed twice in PBS (4° C.) and resuspended at a concentration of 1×10^6 cells/ml in Binding Buffer (10× solution contains 0.1M HEPES/NaOH, pH7.4; […]; 25 mM CaCl2; PharMingen, 66121A). Cells were aliquotted (100 ul) into FACS tubes with Annexin V and/or viability dye. The tube contents were mixed gently and incubated for 15 minutes at room temperature in the dark. Binding Buffer (400 ul) was added to each tube and analyzed immediately by flow cytometry.
Annexin V is available in biotin, FITC (Annexin-V-FITC; PharMingen, 65874X) and PE (Annexin-PE; PharMingen, 65875X) formats. When using Annexin-V-FITC, Propidium Iodide (PI; Sigma, P 4170) was used as the viability marker (5 ul of a 50 ug/ml stock solution). When using Annexin-V-PE, 7-AminoActinomycin D (7-AAD; Sigma, A 9400) was the preferred viability marker (1 ug/ml final concentration) as there is less spectral overlap of PE and 7-AAD than PE and PI. While 7-AAD is not as bright as PI, FITC, PE and PI can be combined effectively. Tubes contained (i) cells alone, (ii) cells+Annexin, (iii) cells+PI (or 7-AAD) or (iv) cells+Annexin+PI (or 7-AAD) in some assays.

For the next assay, the target named is Bmx(h) (Homo sapiens, UniProt P51813). Put plainly: Protein kinase inhibition assay. In kind it is biochemical. The settings on record: read-out: percent residual activity of Bmx(h). As for the experimental part: as §1
(§3) In a final reaction volume of 25 μl, Bmx (h) (5-10 mU) is incubated with 8 mM MOPS pH 7.0, 0.2 mM EDTA, 0.1 mg/ml poly(Glu, Tyr) 4:1, 10 mM MgAcetate and [gamma-33P-ATP] (specific activity approx. 500 cpm/pmol, concentration as required). The reaction is initiated by the addition of the MgATP mix. After incubation for 40 minutes at room temperature, the reaction is stopped by the addition of 5 μl of a 3% phosphoric acid solution. 10 μl of the reaction is then spotted onto a Filtermat A and washed three times for 5 minutes in 75 mM phosphoric acid and once in methanol prior to drying and scintillation counting.

The target in another assay is IKKα(h) (Homo sapiens, UniProt O15111). Put plainly: Protein kinase inhibition assay. The class given is biochemical. The conditions noted are these: read-out: percent residual activity of IKKα(h). As for the experimental part: as §1
as §3, with “IKKa” for “Bmx”, “200 μM peptide,” for “0.1 mg/ml poly(Glu, Tyr) 4:1,”, “P30 filtermat” for “Filtermat A”

The next assay concerns the target HIPK2(h) (Homo sapiens, UniProt Q9H2X6). Description: Protein kinase inhibition assay. The class given is biochemical. The settings on record: read-out: percent residual activity of HIPK2(h). As for the experimental part:
as §1
as §2, with “μl, HIPK2” for “μl, SAPK4”, “with 8” for “with 25”, “mM MOPS” for “mM Tris”, “pH 7.0, 0.2” for “pH 7.5, 0.02”, “mM EDTA,” for “mM EGTA,”, “filtermat” for “filtermat and”

Another assay addresses ZAP-70(h) (Homo sapiens, UniProt P43403). Put plainly: Protein kinase inhibition assay. The class given is biochemical. The settings on record: read-out: percent residual activity of ZAP-70(h). As for the experimental part:
as §1
In a final reaction volume of 25 μl, ZAP-70 (h) (5-10 mU) is incubated with 50 mM Tris pH 7.5, 0.1 mM EGTA, 0.1 mM Na3VO4, 0.1% R-mercaptoethanol, 0.1 mg/ml poly(Glu, Tyr) 4:1, 10 mM MnCl2, 10 mM MgAcetate and [gamma-33P-ATP] (specific activity approx. 500 cpm/pmol, concentration as required). The reaction is initiated by the addition of the MgATP mix. After incubation for 40 minutes at room temperature, the reaction is stopped by the addition of 5 μl of a 3% phosphoric acid solution. […]

SMILES strings stand for the structures.

Sequence of HIPK2(h) (Q9H2X6 whole entry): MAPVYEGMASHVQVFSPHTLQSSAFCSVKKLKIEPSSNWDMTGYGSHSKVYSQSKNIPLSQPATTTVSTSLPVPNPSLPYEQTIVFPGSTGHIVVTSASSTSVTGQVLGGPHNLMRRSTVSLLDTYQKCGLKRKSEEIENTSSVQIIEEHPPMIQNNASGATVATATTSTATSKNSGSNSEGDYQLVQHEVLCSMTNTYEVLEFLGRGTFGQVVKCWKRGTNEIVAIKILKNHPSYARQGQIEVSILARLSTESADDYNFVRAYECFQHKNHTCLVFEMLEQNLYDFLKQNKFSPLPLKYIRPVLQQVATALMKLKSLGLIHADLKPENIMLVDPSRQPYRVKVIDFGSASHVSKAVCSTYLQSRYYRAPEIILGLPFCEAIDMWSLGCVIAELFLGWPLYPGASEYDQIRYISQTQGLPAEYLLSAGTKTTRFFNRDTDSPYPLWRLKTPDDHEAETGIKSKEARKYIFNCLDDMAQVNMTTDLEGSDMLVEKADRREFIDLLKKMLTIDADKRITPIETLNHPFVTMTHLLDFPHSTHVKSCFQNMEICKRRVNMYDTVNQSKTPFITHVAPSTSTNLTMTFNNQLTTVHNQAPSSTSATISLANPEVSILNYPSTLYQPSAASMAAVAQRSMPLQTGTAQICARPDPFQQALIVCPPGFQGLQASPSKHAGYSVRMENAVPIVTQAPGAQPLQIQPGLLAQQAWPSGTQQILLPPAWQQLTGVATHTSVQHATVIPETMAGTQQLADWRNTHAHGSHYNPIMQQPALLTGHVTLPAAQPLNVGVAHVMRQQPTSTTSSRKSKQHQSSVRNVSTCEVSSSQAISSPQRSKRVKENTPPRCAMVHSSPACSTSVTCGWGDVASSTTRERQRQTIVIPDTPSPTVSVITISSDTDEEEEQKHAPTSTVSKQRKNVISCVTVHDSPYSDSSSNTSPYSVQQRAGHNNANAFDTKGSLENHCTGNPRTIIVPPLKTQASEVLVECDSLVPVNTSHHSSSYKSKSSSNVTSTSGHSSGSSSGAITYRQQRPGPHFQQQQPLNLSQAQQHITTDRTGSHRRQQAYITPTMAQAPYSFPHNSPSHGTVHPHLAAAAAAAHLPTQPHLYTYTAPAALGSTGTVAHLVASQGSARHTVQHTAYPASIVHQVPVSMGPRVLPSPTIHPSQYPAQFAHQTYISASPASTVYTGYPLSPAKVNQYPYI
Sequence of Bmx(h) (P51813 whole entry): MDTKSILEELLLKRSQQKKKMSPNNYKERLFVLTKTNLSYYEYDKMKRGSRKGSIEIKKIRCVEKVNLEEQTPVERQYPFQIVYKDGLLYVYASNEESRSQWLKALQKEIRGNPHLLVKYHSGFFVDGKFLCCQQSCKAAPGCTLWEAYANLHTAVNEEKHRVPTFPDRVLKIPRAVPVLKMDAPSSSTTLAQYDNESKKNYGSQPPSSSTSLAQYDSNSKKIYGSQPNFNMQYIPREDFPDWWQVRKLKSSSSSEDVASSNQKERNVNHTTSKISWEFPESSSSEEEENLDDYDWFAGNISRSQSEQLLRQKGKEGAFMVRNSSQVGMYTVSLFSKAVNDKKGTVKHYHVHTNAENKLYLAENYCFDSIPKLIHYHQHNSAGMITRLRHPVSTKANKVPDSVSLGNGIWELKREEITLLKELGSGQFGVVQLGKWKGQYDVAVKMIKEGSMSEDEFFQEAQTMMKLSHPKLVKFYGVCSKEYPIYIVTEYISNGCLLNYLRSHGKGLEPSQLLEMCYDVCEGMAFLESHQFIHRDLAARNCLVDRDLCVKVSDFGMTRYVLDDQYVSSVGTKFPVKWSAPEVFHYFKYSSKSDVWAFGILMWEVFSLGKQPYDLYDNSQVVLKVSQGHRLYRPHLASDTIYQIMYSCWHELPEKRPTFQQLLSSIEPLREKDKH
Sequence of ZAP-70(h) (P43403 whole entry): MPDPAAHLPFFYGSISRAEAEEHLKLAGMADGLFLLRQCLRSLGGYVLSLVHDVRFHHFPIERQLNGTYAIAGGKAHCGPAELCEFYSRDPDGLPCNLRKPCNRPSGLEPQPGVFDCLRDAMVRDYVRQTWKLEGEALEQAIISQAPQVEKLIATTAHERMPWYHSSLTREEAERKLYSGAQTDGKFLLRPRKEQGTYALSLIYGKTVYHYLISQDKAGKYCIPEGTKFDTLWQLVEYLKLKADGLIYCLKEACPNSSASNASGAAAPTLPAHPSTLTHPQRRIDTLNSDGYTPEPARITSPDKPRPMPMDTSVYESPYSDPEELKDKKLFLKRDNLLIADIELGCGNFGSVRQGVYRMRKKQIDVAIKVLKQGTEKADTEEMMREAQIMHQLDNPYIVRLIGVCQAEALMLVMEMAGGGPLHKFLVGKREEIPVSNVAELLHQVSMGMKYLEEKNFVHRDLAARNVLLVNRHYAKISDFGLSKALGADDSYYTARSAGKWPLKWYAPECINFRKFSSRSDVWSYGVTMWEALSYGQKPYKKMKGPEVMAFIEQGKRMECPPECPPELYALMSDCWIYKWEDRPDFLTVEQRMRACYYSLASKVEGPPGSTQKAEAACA
Sequence of SAPK4(h) (O15264 whole entry): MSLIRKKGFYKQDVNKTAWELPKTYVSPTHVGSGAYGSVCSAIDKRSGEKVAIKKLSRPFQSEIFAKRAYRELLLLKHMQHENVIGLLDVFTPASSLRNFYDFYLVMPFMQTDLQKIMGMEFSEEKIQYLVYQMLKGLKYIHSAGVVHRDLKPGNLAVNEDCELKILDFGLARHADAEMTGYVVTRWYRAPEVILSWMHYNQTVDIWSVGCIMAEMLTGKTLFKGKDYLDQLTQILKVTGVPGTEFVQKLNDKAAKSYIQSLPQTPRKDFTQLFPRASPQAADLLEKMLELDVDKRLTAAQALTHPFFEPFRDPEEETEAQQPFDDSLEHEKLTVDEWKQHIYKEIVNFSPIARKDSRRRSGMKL
Sequence of IKKα(h) (O15111 whole entry): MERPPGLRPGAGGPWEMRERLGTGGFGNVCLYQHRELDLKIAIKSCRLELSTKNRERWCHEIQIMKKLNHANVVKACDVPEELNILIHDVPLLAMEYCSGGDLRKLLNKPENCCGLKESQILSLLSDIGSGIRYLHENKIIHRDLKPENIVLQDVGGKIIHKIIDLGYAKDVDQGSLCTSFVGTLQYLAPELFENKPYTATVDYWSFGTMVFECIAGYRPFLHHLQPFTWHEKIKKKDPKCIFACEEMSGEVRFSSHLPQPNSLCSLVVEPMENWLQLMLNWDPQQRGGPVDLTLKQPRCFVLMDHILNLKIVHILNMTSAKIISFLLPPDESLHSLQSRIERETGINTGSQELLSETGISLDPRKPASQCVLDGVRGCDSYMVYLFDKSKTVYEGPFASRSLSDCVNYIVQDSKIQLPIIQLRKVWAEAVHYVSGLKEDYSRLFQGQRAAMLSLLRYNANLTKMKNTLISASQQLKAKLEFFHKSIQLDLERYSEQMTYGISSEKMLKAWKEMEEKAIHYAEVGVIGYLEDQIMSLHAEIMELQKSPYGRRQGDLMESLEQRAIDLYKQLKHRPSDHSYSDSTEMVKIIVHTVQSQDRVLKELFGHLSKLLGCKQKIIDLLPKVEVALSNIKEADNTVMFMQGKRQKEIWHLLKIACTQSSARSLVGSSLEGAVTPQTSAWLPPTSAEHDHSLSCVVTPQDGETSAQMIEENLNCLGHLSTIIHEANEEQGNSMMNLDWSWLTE

In the case of `CN1CCCC1CCNC(=O)c1cn2c3c(c(N4CCC(c5cnccn5)C4)c(F)cc3c1=O)Oc1cc3ccccc3cc1-2` (stereo not drawn) [Compound A-1], the remaining activity at 2.5 µM on SAPK4(h) came to 31%; on Bmx(h), 68%; on IKKα(h), 68%; on HIPK2(h) it was 106%; at ZAP-70(h) it was 130%. Also, the induction of apoptosis result with cells is listed as “induced apoptosis”.
For the compound `CC(=O)N1CCN(c2ccc3c(=O)c(C(=O)NCCN4CCCC4)c4n(C)c5ccccc5n4c3n2)CC1` [Compound B-1], the remaining activity at 2.5 µM worked out at 105% on SAPK4(h); 105% at Bmx(h); 118% at IKKα(h); 111% on HIPK2(h); 105% on ZAP-70(h). Also, the induction of apoptosis entry in the assay with cells is “induced apoptosis following an efficient arrest of cell cycle progression”.
